{"source": "patent US20060112494A1", "about": "“Method of protecting an animal skin product from metalloproteinase activity” (priority 2004, published 2006)", "key": {"[1]": {"system": "Pseudomonas fluorescens", "settings": "for Growth/Days 1: day 1; for Growth/Days 2: day 2; for Growth/Days 7: day 7", "experimental": "(§1) Nutrient agar amended with Azocoll (a substrate made up of insoluble particles of collagen impregnated with a bright azo dye) was used as the test medium to study collagenase activity. The nutrient agar was prepared and autoclaved and then was cooled to 55° C. Azocol was added to give a final concentration of 0.5%. […] Using a sterile spatula or cork-borer, the middle portion of each plate of about the size of a United States quarter, was scooped out. Fresh nutrient agar-azocoll medium containing no inhibitor was added to replace the scooped out portion of the plate. […] The bacteria were grown overnight on nutrient agar. A suspension of each culture was made in sterile water and used to inoculate the middle portion of each plate. The treated samples were incubated at 30° C. and evaluated after 24 hours, 2 days and 7 days for collagenase activity and also for the growth of the bacteria. The test cultures secreted collagenase into the medium as they grew to degrade the collagen in the azocoll medium, and collagenase activity was determined by visual inspection of the clear zone around the bacteria. All % are by weight percent of the active ingredient."}, "[2]": {"system": "Aeromonas salmonicida", "set-up": "key to the marks not given beside the values", "settings": "for Growth/Days 1: day 1; for Growth/Days 2: day 2; for Growth/Days 7: day 7", "experimental": "as §1"}, "[3]": {"system": "collagenase", "settings": "for Collagenase Activity/Days 1: day 1; for Collagenase Activity/Days 2: day 2; for Collagenase Activity/Days 7: day 7"}, "[4]": {"system": "collagenase", "settings": "for Collagenase Activity/Days 1: day 1; for Collagenase Activity/Days 2: day 2; for Collagenase Activity/Days 7: day 7", "remark": "listed apart in the source"}, "[5]": {"system": "mixed bacteria on fresh hide samples", "set-up": "Growth/Days 2 / Growth/Days 4: key to the marks not given beside the values", "settings": "for Growth/Days 1: day 1; for Growth/Days 2: day 2; for Growth/Days 4: day 4"}, "[6]": {"system": "collagenase", "settings": "for Collagenase Activity/Days 1: day 1; for Collagenase Activity/Days 2: day 2; for Collagenase Activity/Days 7: day 7", "remark": "listed apart in the source", "protocol": "Nutrient agar amended with 0.5% AZOCOLL was used as the test medium to study collagenase activity. The nutrient agar was prepared and autoclaved and then was cooled to 55° C. Azocol was added to give a final concentration of 0.5%. […] Fresh hides were obtained from a tannery and were cut into pieces of approximately 2 cm square. One 2×2 cm hide sample was placed on top of the agar containing the inhibitors. Treated samples were incubated at 30° C. and evaluated after 24 hours, 2 days, 3 or 4 days and 7 days for collagenase activity and also for the growth of the bacteria. The bacteria from the hides secreted collagenase into the medium as they grew to degrade the collagen in the azocoll medium and collagenase activity was determined by visual inspection of the clear zone around the bacteria"}}, "note": "Read-outs that look alike come from different tables or passages of the source.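 Wherever Collagenase Activity/Days 4 is given: nutrient agar containing 0.5% Azocoll with inhibitor, topped by a fresh hide piece, kept at 30 °C, collagenase from hide bacteria scored visually as clearing zone around growth.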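 Wherever Growth/Days 4 is given: fresh hide pieces laid on inhibitor-containing nutrient agar supplemented with 0.5% Azocoll, incubated at 30 °C, then scored for growth of bacteria originating from the hide.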"}
{"compound": "O=C(O)CN(CCOCCOCCN(CC(=O)O)CC(=O)O)CC(=O)O", "note": "[Na4EGTA, ethylene glycol-bis(β-aminoethylether)-N,N,N′N′-tetraacetic acid]", "values": [{"measurement": "Growth/Days 1", "setting": "[1]; Conc. 0.025%", "value": "++++"}, {"measurement": "Growth/Days 2", "setting": "[1]; Conc. 0.025%", "value": "++++"}, {"measurement": "Growth/Days 7", "setting": "[1]; Conc. 0.025%", "value": "++++"}, {"measurement": "Growth/Days 1", "setting": "[1]; Conc. 0.05%", "value": "++++"}, {"measurement": "Growth/Days 2", "setting": "[1]; Conc. 0.05%", "value": "++++"}, {"measurement": "Growth/Days 7", "setting": "[1]; Conc. 0.05%", "value": "++++"}, {"measurement": "Growth/Days 1", "setting": "[1]; Conc. 0.075%", "value": "++++"}, {"measurement": "Growth/Days 2", "setting": "[1]; Conc. 0.075%", "value": "++++"}, {"measurement": "Growth/Days 7", "setting": "[1]; Conc. 0.075%", "value": "++++"}, {"measurement": "Growth/Days 1", "setting": "[1]; Conc. 0.1%", "value": "++++"}, {"measurement": "Growth/Days 2", "setting": "[1]; Conc. 0.1%", "value": "++++"}, {"measurement": "Growth/Days 7", "setting": "[1]; Conc. 0.1%", "value": "++++"}, {"measurement": "Growth/Days 1", "setting": "[1]; Conc. 0.2%", "value": "++++"}, {"measurement": "Growth/Days 2", "setting": "[1]; Conc. 0.2%", "value": "++++"}, {"measurement": "Growth/Days 7", "setting": "[1]; Conc. 0.2%", "value": "++++"}, {"measurement": "Growth/Days 1", "setting": "[1]; Conc. 0.3%", "value": "++++"}, {"measurement": "Growth/Days 2", "setting": "[1]; Conc. 0.3%", "value": "++++"}, {"measurement": "Growth/Days 7", "setting": "[1]; Conc. 0.3%", "value": "++++"}, {"measurement": "Growth/Days 1", "setting": "[1]; Conc. 0.4%", "value": "++++"}, {"measurement": "Growth/Days 2", "setting": "[1]; Conc. 0.4%", "value": "++++"}, {"measurement": "Growth/Days 7", "setting": "[1]; Conc. 0.4%", "value": "++++"}, {"measurement": "Growth/Days 1", "setting": "[1]; Conc. 0.5%", "value": "++++"}, {"measurement": "Growth/Days 2", "setting": "[1]; Conc. 0.5%", "value": "++++"}, {"measurement": "Growth/Days 7", "setting": "[1]; Conc. 0.5%", "value": "++++"}, {"measurement": "Growth/Days 1", "setting": "[2]; Conc. 0.1%", "value": "++++"}, {"measurement": "Growth/Days 2", "setting": "[2]; Conc. 0.1%", "value": "++++"}, {"measurement": "Growth/Days 7", "setting": "[2]; Conc. 0.1%", "value": "++++"}, {"measurement": "Growth/Days 1", "setting": "[2]; Conc. 0.25%", "value": "++++"}, {"measurement": "Growth/Days 2", "setting": "[2]; Conc. 0.25%", "value": "++++"}, {"measurement": "Growth/Days 7", "setting": "[2]; Conc. 0.25%", "value": "++++"}, {"measurement": "Growth/Days 1", "setting": "[2]; Conc. 0.5%", "value": "++++"}, {"measurement": "Growth/Days 2", "setting": "[2]; Conc. 0.5%", "value": "++++"}, {"measurement": "Growth/Days 7", "setting": "[2]; Conc. 0.5%", "value": "++++"}, {"measurement": "Collagenase Activity/Days 1", "setting": "[3]; Conc. 0.025%", "value": "++++"}, {"measurement": "Collagenase Activity/Days 2", "setting": "[3]; Conc. 0.025%", "value": "++++"}, {"measurement": "Collagenase Activity/Days 7", "setting": "[3]; Conc. 0.025%", "value": "++++"}, {"measurement": "Collagenase Activity/Days 1", "setting": "[3]; Conc. 0.075%", "value": 0}, {"measurement": "Collagenase Activity/Days 1", "setting": "[3]; Conc. 0.1%", "value": 0}, {"measurement": "Collagenase Activity/Days 2", "setting": "[3]; Conc. 0.1%", "value": 0}, {"measurement": "Collagenase Activity/Days 1", "setting": "[3]; Conc. 0.2%", "value": 0}, {"measurement": "Collagenase Activity/Days 2", "setting": "[3]; Conc. 0.2%", "value": 0}, {"measurement": "Collagenase Activity/Days 1", "setting": "[3]; Conc. 0.3%", "value": 0}, {"measurement": "Collagenase Activity/Days 2", "setting": "[3]; Conc. 0.3%", "value": 0}, {"measurement": "Collagenase Activity/Days 1", "setting": "[3]; Conc. 0.4%", "value": 0}, {"measurement": "Collagenase Activity/Days 2", "setting": "[3]; Conc. 0.4%", "value": 0}, {"measurement": "Collagenase Activity/Days 1", "setting": "[3]; Conc. 0.5%", "value": 0}, {"measurement": "Collagenase Activity/Days 2", "setting": "[3]; Conc. 0.5%", "value": 0}, {"measurement": "Collagenase Activity/Days 7", "setting": "[3]; Conc. 0.5%", "value": 0}, {"measurement": "performance as collagenase inhibitors (summary in words)", "setting": "[3]; collagenase produced by the bacteria studied, Table 1", "value": "performed very well as collagenase inhibitors"}, {"measurement": "Collagenase Activity/Days 1", "setting": "[4]; Conc. 0.1%", "value": 0}, {"measurement": "Collagenase Activity/Days 2", "setting": "[4]; Conc. 0.1%", "value": 0}, {"measurement": "Collagenase Activity/Days 1", "setting": "[4]; Conc. 0.25%", "value": 0}, {"measurement": "Collagenase Activity/Days 2", "setting": "[4]; Conc. 0.25%", "value": 0}, {"measurement": "Collagenase Activity/Days 7", "setting": "[4]; Conc. 0.25%", "value": 0}, {"measurement": "Collagenase Activity/Days 1", "setting": "[4]; Conc. 0.5%", "value": 0}, {"measurement": "Collagenase Activity/Days 2", "setting": "[4]; Conc. 0.5%", "value": 0}, {"measurement": "Collagenase Activity/Days 7", "setting": "[4]; Conc. 0.5%", "value": 0}, {"measurement": "performance as collagenase inhibitors (summary in words)", "setting": "[4]; collagenase produced by the bacteria studied, Table 2", "value": "performed very well as collagenase inhibitors"}, {"measurement": "Growth/Days 1", "setting": "[5]; Conc. 0.025%", "value": "++++"}, {"measurement": "Growth/Days 2", "setting": "[5]; Conc. 0.025%", "value": "++++"}, {"measurement": "Growth/Days 4", "setting": "[5]; Conc. 0.025%", "value": "++++"}, {"measurement": "Growth/Days 1", "setting": "[5]; Conc. 0.05%", "value": "++++"}, {"measurement": "Growth/Days 2", "setting": "[5]; Conc. 0.05%", "value": "++++"}, {"measurement": "Growth/Days 4", "setting": "[5]; Conc. 0.05%", "value": "++++"}, {"measurement": "Growth/Days 1", "setting": "[5]; Conc. 0.075%", "value": "++++"}, {"measurement": "Growth/Days 2", "setting": "[5]; Conc. 0.075%", "value": "++++"}, {"measurement": "Growth/Days 4", "setting": "[5]; Conc. 0.075%", "value": "++++"}, {"measurement": "Growth/Days 1", "setting": "[5]; Conc. 0.1%", "value": "++++"}, {"measurement": "Growth/Days 2", "setting": "[5]; Conc. 0.1%", "value": "++++"}, {"measurement": "Growth/Days 4", "setting": "[5]; Conc. 0.1%", "value": "++++"}, {"measurement": "Growth/Days 1", "setting": "[5]; Conc. 0.2%", "value": "++++"}, {"measurement": "Growth/Days 2", "setting": "[5]; Conc. 0.2%", "value": "++++"}, {"measurement": "Growth/Days 4", "setting": "[5]; Conc. 0.2%", "value": "++++"}, {"measurement": "Growth/Days 1", "setting": "[5]; Conc. 0.3%", "value": "++++"}, {"measurement": "Growth/Days 2", "setting": "[5]; Conc. 0.3%", "value": "++++"}, {"measurement": "Growth/Days 4", "setting": "[5]; Conc. 0.3%", "value": "++++"}, {"measurement": "Growth/Days 1", "setting": "[5]; Conc. 0.4%", "value": "+++"}, {"measurement": "Growth/Days 2", "setting": "[5]; Conc. 0.4%", "value": "++++"}, {"measurement": "Growth/Days 4", "setting": "[5]; Conc. 0.4%", "value": "++++"}, {"measurement": "Growth/Days 1", "setting": "[5]; Conc. 0.5%", "value": "+++"}, {"measurement": "Growth/Days 2", "setting": "[5]; Conc. 0.5%", "value": "++++"}, {"measurement": "Growth/Days 4", "setting": "[5]; Conc. 0.5%", "value": "++++"}, {"measurement": "Collagenase Activity/Days 1", "setting": "[6]; Conc. 0.025%", "value": "++++"}, {"measurement": "Collagenase Activity/Days 2", "setting": "[6]; Conc. 0.025%", "value": "++++"}, {"measurement": "Collagenase Activity/Days 4", "setting": "[6]; Conc. 0.025%, day 4", "value": "++++"}, {"measurement": "Collagenase Activity/Days 7", "setting": "[6]; Conc. 0.025%", "value": "++++"}, {"measurement": "Collagenase Activity/Days 4", "setting": "[6]; Conc. 0.05%, day 4", "value": "++++"}, {"measurement": "Collagenase Activity/Days 1", "setting": "[6]; Conc. 0.075%", "value": 0}, {"measurement": "Collagenase Activity/Days 4", "setting": "[6]; Conc. 0.075%, day 4", "value": "++++"}, {"measurement": "Collagenase Activity/Days 1", "setting": "[6]; Conc. 0.1%", "value": 0}, {"measurement": "Collagenase Activity/Days 2", "setting": "[6]; Conc. 0.1%", "value": 0}, {"measurement": "Collagenase Activity/Days 4", "setting": "[6]; Conc. 0.1%, day 4", "value": "+"}, {"measurement": "Collagenase Activity/Days 1", "setting": "[6]; Conc. 0.2%", "value": 0}, {"measurement": "Collagenase Activity/Days 2", "setting": "[6]; Conc. 0.2%", "value": 0}, {"measurement": "Collagenase Activity/Days 4", "setting": "[6]; Conc. 0.2%, day 4", "value": "+"}, {"measurement": "Collagenase Activity/Days 1", "setting": "[6]; Conc. 0.3%", "value": 0}, {"measurement": "Collagenase Activity/Days 2", "setting": "[6]; Conc. 0.3%", "value": 0}, {"measurement": "Collagenase Activity/Days 4", "setting": "[6]; Conc. 0.3%, day 4", "value": "+"}, {"measurement": "Collagenase Activity/Days 1", "setting": "[6]; Conc. 0.4%", "value": 0}, {"measurement": "Collagenase Activity/Days 2", "setting": "[6]; Conc. 0.4%", "value": 0}, {"measurement": "Collagenase Activity/Days 4", "setting": "[6]; Conc. 0.4%, day 4", "value": 0}, {"measurement": "Collagenase Activity/Days 4", "setting": "[6]; Conc. 0.5%, column day 4, footnote **: data collected on Day 3", "value": "0**"}, {"measurement": "Collagenase Activity/Days 1", "setting": "[6]; Conc. 0.5%", "value": 0}, {"measurement": "Collagenase Activity/Days 2", "setting": "[6]; Conc. 0.5%", "value": 0}, {"measurement": "Collagenase Activity/Days 7", "setting": "[6]; Conc. 0.5%", "value": 0}, {"measurement": "performance as collagenase inhibitors (summary in words)", "setting": "[6]; collagenase produced by the mixed culture of bacteria from the hides", "value": "performed very well as collagenase inhibitors"}]}
